Where two headings read alike, the source gives them in different places.

Series [1] in a line: Pharmacokinetics of Aftin-5 in mice after single PO or IP dose. The conditions noted are these: for Tmax / Cmax / Kp: mouse; for Kp: brain/plasma, read-out: brain/plasma partition coefficient (Kpbrain/plasma). Type of series: in vivo. The source says:
In addition, pharmacokinetic experiments of Aftin-5 in mice confirmed the ability of the compound to reach the brain. The PK parameters are plotted in Table 3 below.
The brain/plasma partition coefficient (Kpbrain/plasma) was about 0.014 and 0.033 for oral and IP administration, respectively.

In series [2] the test system is IL-6. The experiment in a line: IL-6 mRNA in OHSC (RT-qPCR). The series is classed as cell-based, mice. To be noted: 50 μM, 10 days, vs vehicle, P=0.06. How it is done:
FIG. 10. Plots illustrating the effect of Aftin-5 on relative mRNA expression levels of interleukin-1-beta (IL-1β; (A)), interleukin-6 (IL-6; (B)), TNF-alpha (TNFα; (C)) and interleukin-10 (IL-10; (D)) in organotypic hippocampal slice cultures (OHSC). OHSC culture media […] were replaced by incubation medium containing Aftin-5 (50 μM; A50) or vehicle (0.1% DMSO; Veh). 10 days later, total mRNA in lysate was isolated and purified, cDNAs were then synthesized from […] of total mRNA. cDNAs were amplified by quantitative RT-PCR and the relative expression of specific genes was normalized to the housekeeping gene HPRT1 (2^−ΔCt). Mann-Whitney tests were performed and ***p<0.001 indicates significant differences between Aftin-5 and control conditions. Data expressed as means+/−SEM from q=3 independent experiments with n=4-6 inserts/condition and 10 slices/insert. […]
(§1) The impact of Aftin-5 on gene expression of different biomarkers was determined by measuring mRNA levels of selected BDNF, CREB, PS95, INS Receptor/IGF-1 receptor, IL-1β, IL-6 in OHSC treated chronically with Aftin-5 or in a total brain from mice exposed to Aftin-5 at either 8 or 30 mg/Kg. […] Threshold cycles (Ct) of target gene and cyclophilin A (Ppia−control housekeeping gene) were recorded and gene expression was calculated as 2^−ΔΔCt(ΔΔCt=ΔCttreated−ΔCtcontrol, ΔCt=Cttarget−CtPpia). […]
(Real-time PCR tracks product formation cycle by cycle.)

Series [3] has as its system IL-6 cytokine. Put plainly: Secreted IL-6 in LPS-treated human primary glial cells (MSD ELISA). Type of series: cell-based. To be noted: LPS 6 h, then purine derivative 10 μM for 18 h. The method, then:
For assessing the cytokine production, human primary glial cells were grown until confluent on coated collagen 12-well plates. Cells were serum-starved in glial serum-free medium for 2 h and treated with LPS for 6 h before treatment with purine derivatives (10 μM) for an additional 18 h. Supernatants were harvested and secreted IL-6 cytokine was measured by ELISA by the mean of the Meso Scale Discovery (MSD) technology. Briefly, a 96-well plate having 1 spot pre-coated with the corresponding antibody is provided by MSD Technology. Before adding the samples, a first saturation step is required. Once the plate is saturated and washed, 25 μL of sample (or calibrators) per well are loaded and incubated for 1 hour. Then the plate is washed and incubated with 25 μL of the Detection Antibody solution (MSD SULFO-TAG) for 1 hour. At the end of the incubation, the plate is washed and then a chemical solution (Read buffer 1×) is added allowing electrochemiluminescence. After a short incubation (5 min) at room temperature, the plate is read on the QUICK Plex SQ120. The instrument measures the intensity of the light electrochemiluminescence.
On the technique in general: In an ELISA, binding on a coated surface is turned into a signal by an enzyme label.

In series [4] the test system is TNF-α, IL-1β and IL-6 mRNA. Put plainly: Cytokine mRNA in OHSC from transgenic 3×Tg-AD mice (RT-qPCR). Type of series: cell-based, transgenic Tau mice (3×Tg-AD). The conditions noted are these: OHSC from transgenic mice overexpressing P-Tau, 50-150 μM, 10 days, vs vehicle. The method, then:
FIG. 11. Plots illustrating the effect of Aftin-5 mediated attenuation of TNF-α (A) and IL-1β (B) and IL-6 (C) in organotypic hippocampal slice cultures from wild type mice (C57BI/6J) and transgenic Tau mice (3×Tg-AD). 3 Tg organotypic hippocampal slice cultures media were replaced by incubation medium containing Aftin-5 at 50 μM (A50), 100 μM (A100) and 150 μM (A150) or vehicle (0.1% DMSO; Veh). After chronic treatment (10 days) total mRNA in lysate was isolated and purified, cDNAs were then synthesized from […] of total mRNA. cDNAs were amplified by quantitative RT-PCR and the relative expression of specific genes was normalized to the housekeeping gene HPRT1 (2^−ΔCt). […] Data expressed as means+/−SEM (n=2-6 wells/condition) from q=2 independent experiments with n=2-6 inserts/conditions and 10 slices/insert. […]
as §1

[5] abbreviates: plasma, IP single dose 10 mg/kg.

Broadly, the Tmax is the time from dosing to the highest level. The term Cmax denotes the highest concentration seen after dosing. In the case of `CC[C@H](CO)Nc1nc(N(C)c2ccccc2)c2ncn(C(C)C)c2n1` [Aftin-5], the “AUC0-∞” value in series [1] (brain, IP single dose 10 mg/kg) turned out to be 441.51 nMh; in series [1] (brain, PO single dose 5 mg/kg), 115.25 nMh; in series [1] (setting [5]), 13577.63 nMh. Further, the “t^1/2” value in series [1] (brain, IP single dose 10 mg/kg) is reported as 0.6 h; in series [1] (brain, PO single dose 5 mg/kg) it was 1.8 h; in series [1] (setting [5]), ~1.2 h. The Tmax in series [1] (brain, IP single dose 10 mg/kg) was found to be 4.98 min; in series [1] (brain, PO single dose 5 mg/kg) it was 15 min; in series [1] (setting [5]), 4.98 min; in series [1] (plasma, PO single dose 5 mg/kg) it was 15 min. In addition, the Cmax in series [1] (brain, ip, 10 mg/kg, IP single dose 10 mg/kg) was ~807 nM; in series [1] (brain, po, 5 mg/kg, PO single dose 5 mg/kg), ~44.9 nM; in series [1] (plasma, ip, 10 mg/kg, IP single dose 10 mg/kg), 22600 nM; in series [1] (plasma, po, 5 mg/kg, PO single dose 5 mg/kg), 3890 nM. Besides, the Kp in series [1] (IP administration, single dose 10 mg/kg) was ~0.033; in series [1] (oral administration, single dose 5 mg/kg), ~0.014. Further, the “IL-6 mRNA synthesis” value in series [2] is on record as “do not achieve significance”. Moreover, the “Anti-inflammatory Compounds (secreted IL-6)” value in series [3] is given as “+(>1 μM) (“+” means that the tested compound shows an anti-inflammatory and/or attenuation of Tau's phosphorylation property with a concentration higher than 1 μM)”. The “cytokine-mRNA synthesis (TNF-α, IL-1β, IL-6)” value in series [4] is “decreases”.

For the origin of these results see patent US11472807B2, “Purine derivatives for use as medicament and for use in treating neurodegenerative or neuro-inflammatory disorders” (COMMISSARIAT À L'ENERGIE ATOMIQUE ET AUX ENERGIES …, priority 2017, dated 2022).
